Reference: US10494360B2, “Inhibitors of indoleamine 2,3-dioxygenase” (NETHERLANDS TRANSLATIONAL RESEARCH CENTER B.V., priority 2016, dated 2019)
Where “and” joins values, the source holds several entries; their conditions need not be identical. Identical values can stand only once.

Tests used:
[1] = tested on: IDO1 expressed in mouse tumor cells; settings: pre-immunized mice; Uyttenhove et al.; cited from earlier work
lung carcinoma = settings: syngeneic mouse lung carcinoma model and transgenic mouse model; cited from earlier work
[2] = tested on: melanoma and glioblastoma; settings: mouse tumor models for melanoma and glioblastoma; cited from earlier work
influenza virus = settings: influenza virus-infected mice; cited from earlier work
Leishmania major = Leishmania major infection; cited from earlier work
IDO1 [3] = target: T1, IDO1 (Homo sapiens, UniProt P14902); assay: Cell-based assay for IDO1 in interferon-γ stimulated A-375 melanoma cells; settings: interferon-γ stimulation, 48 hours, read-out: IC50, cell-based IDO1 (NFK levels)
T1 sequence (P14902 whole entry, species assumed): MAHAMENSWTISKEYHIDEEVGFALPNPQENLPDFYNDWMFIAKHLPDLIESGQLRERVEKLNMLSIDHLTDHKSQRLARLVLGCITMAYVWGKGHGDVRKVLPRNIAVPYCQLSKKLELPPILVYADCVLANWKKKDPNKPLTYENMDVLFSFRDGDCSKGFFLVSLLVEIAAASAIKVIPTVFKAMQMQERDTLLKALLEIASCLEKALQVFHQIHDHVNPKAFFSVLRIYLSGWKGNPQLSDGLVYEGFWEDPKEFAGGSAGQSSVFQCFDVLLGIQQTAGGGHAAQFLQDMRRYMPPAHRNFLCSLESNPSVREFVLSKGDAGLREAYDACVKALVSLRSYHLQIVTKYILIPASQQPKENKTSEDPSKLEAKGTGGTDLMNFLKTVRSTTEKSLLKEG
Description: The biological activity of IDO1 inhibitors can be measured by applying above detection methods to cells that are treated with test compound. The expression of IDO1 can be induced in many different cell lines by stimulation with IFNγ (Takikawa, O., et al., J. Biol. Chem. 263: 2041; 1988; Seegers, et al.), or IDO1 can be expressed in cells that lack endogenous IDO1 by transfection of an expression vector containing IDO1 cDNA.
A-375 melanoma cells were purchased from LGC Standards GmbH (Wesel, Germany) and cultured in DMEM tissue culture medium (Life Technologies, Bleiswijk, The Netherlands), supplemented with 10% (v/v) bovine calf serum. Compounds were dissolved in DMSO and diluted in DMEM. Final DMSO concentration in the assay was 0.4% (v/v). Eight thousand cells per well in 35 μl were seeded in a black 384-well tissue plate (cat. No. 781086; Greiner Bio-One GmbH, Frickenhausen, Germany) and allowed to adhere by incubation at 37° C., 95% humidity, and 5% CO2 overnight. Then, 5 μl of compound solution was added to the cells 1 hour prior to stimulation with 5 μl of 500 ng/ml interferon-γ (R&D Systems, Minneapolis, Minn., USA) diluted in DMEM medium. At the same time, 5 μl of L-tryptophan in 20 mM Hepes buffer pH 7.4 was added. Incubation was continued for 48 hours. To determine NFK levels, 12 μl NFK Green™ (NTRC, Oss, The Netherlands) was added to each well, and the plate was sealed and incubated for 4 hours at 37° C. Fluorescence was measured on an EnVision multimode reader (Perkin Elmer, Waltham, Mass., USA). IC50 were calculated using XLfit™ software (ID Business Solutions, Ltd., Surrey, U.K.).

IDO1 [4] = target: T1, IDO1; assay: Biochemical IDO1 assay (NFK GreenScreen); parameters: Recombinant full-length IDO1 (Seegers, N., et al.) and all other assay components were diluted in IDO1 reaction buffer; made in house; settings: recombinant full-length IDO1 25 nM, L-tryptophan 100 μM, NFK Green detection; read-out: IC50, inhibitory potency on IDO1
How it was run: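 Recombinant full-length IDO1 in 50 mM NaH2PO4 pH 7.0 with 0.05% Tween-20 and 1% glycerol converted 100 μM L-tryptophan (final) over 60 min at room temperature with compound, 0.3% DMSO.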

TDO = TDO (Homo sapiens, UniProt P48775); settings: read-out: KM,Trp of TDO for L-tryptophan; cited from earlier work
Chain of TDO (P48775 whole entry, species assumed): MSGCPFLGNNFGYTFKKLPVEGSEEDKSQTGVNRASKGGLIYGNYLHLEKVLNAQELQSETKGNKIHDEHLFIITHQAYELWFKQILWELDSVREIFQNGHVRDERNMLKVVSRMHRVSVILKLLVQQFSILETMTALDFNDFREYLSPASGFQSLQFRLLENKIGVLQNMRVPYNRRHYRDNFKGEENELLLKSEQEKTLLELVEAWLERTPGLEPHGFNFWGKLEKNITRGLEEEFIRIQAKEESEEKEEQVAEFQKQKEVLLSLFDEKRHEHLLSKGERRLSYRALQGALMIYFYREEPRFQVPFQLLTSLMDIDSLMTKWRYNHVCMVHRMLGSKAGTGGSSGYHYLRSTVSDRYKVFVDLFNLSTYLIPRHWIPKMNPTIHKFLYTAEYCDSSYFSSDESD

IDO1 [5] = target: T1, IDO1; parameters: Recombinant full-length IDO1 (Seegers, N., et al.) and all other assay components were diluted in IDO1 reaction buffer; made in house; settings: read-out: KM,Trp of IDO1 for L-tryptophan; cited from earlier work
melanoma = settings: Yue et al. 2009; cited from earlier work
[6] = target: tryptophan 2,3-dioxygenase (TDO) (Homo sapiens, UniProt P48775); settings: Seegers et al. 2014; cited from earlier work
Chain of tryptophan 2,3-dioxygenase (TDO) (P48775 whole entry, species assumed): as above

| Compound | IC50 (IDO1 [3]) [µM] | IC50 (IDO1 [4]) | other results |
| --- | --- | --- | --- |
| Cn1cc(C[C@H](N)C(=O)O)c2ccccc21 [Example 1-MT, 1-methyl-L-tryptophan] |  |  | reversal of IDO1-mediated prevention of tumor cell rejection [1]: this effect could be reverted; efficacy of a cancer vaccine in combination (lung carcinoma): increased the efficacy of a cancer vaccine; efficacy of PD-1 and CTLA4 antibodies in combination [2]: increased the efficacy of antibodies targeting the immune checkpoints PD-1 and CTLA4; T cell response against influenza virus (influenza virus): enhanced T cell response against the virus; parasite burden (Leishmania major): reduced the parasite burden |
| Nc1ccc(F)c(C(=O)N2CC(=O)N(O)C2c2cccc(Br)c2)c1F (centres unmarked) [Example 76, 1-(3-Amino-2,6-difluoro-benzoyl)-2-(3-bromophenyl)-3-hydroxy-imidazolidin-4-one] | < 5 | ≤ 1 µM |  |
| O=C1CN(C(=O)c2c(F)cc(F)cc2F)C(c2cccc(Br)c2)N1O (centres unmarked) [Example 82, 2-(3-Bromophenyl)-3-hydroxy-1-(2,4,6-trifluorobenzoyl)imidazolidin-4-one] | < 5 | ≤ 1 µM |  |
| O=C1CN(C(=O)c2c(F)cc(Br)cc2F)C(c2cccc(Br)c2)N1O (centres unmarked) [Example 85, 1-(4-Bromo-2,6-difluoro-benzoyl)-2-(3-bromophenyl)-3-hydroxy-imidazolidin-4-one] | < 5 | ≤ 1 µM |  |
| O=C1CN(C(=O)c2ccncc2F)C(c2cccc(Br)c2)N1O (centres unmarked) [Example 86, 2-(3-Bromophenyl)-1-(3-fluoropyridine-4-carbonyl)-3-hydroxy-imidazolidin-4-one] | < 5 | ≤ 1 µM |  |
| O=C1CN(C(=O)c2cccnc2F)C(c2cccc(Br)c2)N1O (centres unmarked) [Example 87, 2-(3-Bromophenyl)-1-(2-fluoropyridine-3-carbonyl)-3-hydroxy-imidazolidin-4-one] | < 5 | ≤ 1 µM |  |
| C#Cc1cccc(C2N(O)C(=O)CN2C(=O)c2c(F)cccc2F)c1 (centres unmarked) [Example 98, 1-(2,6-Difluorobenzoyl)-2-(3-ethynylphenyl)-3-hydroxy-imidazolidin-4-one] | < 5 | ≤ 1 µM |  |
| O=C1CN(C(=O)c2c(F)cccc2F)C(c2cccc(C3CC3)c2)N1O (centres unmarked) [Example 99, 2-(3-Cyclopropylphenyl)-1-(2,6-difluorobenzoyl)-3-hydroxy-imidazolidin-4-one] | < 5 | ≤ 5 µM and 1 to 5 µM |  |
| O=C1CN(C(=O)c2c(F)cc(C#CC3CC3)cc2F)C(c2cccc(Br)c2)N1O (centres unmarked) [Example 106, 2-(3-Bromophenyl)-1-[4-(2-cyclopropylethynyl)-2,6-difluoro-benzoyl]-3-hydroxy-imidazolidin-4-one] | < 5 | ≤ 1 µM |  |
| CC(C)C#Cc1cc(F)c(C(=O)N2CC(=O)N(O)C2c2cccc(Br)c2)c(F)c1 (centres unmarked) [Example 107, 2-(3-Bromophenyl)-1-[2,6-difluoro-4-(3-methylbut-1-ynyl)benzoyl]-3-hydroxy-imidazolidin-4-one] | < 5 | ≤ 1 µM |  |
| O=C1CN(C(=O)c2c(F)cc(C#CC3CCCCC3)cc2F)C(c2cccc(Br)c2)N1O (centres unmarked) [Example 108, 2-(3-Bromophenyl)-1-[4-(2-cyclohexylethynyl)-2,6-difluoro-benzoyl]-3-hydroxy-imidazolidin-4-one] | < 5 | ≤ 1 µM |  |
| O=C1CN(C(=O)c2c(F)cc(C3CC3)cc2F)C(c2cccc(Br)c2)N1O (centres unmarked) [Example 114, 2-(3-Bromophenyl)-1-(4-cyclopropyl-2,6-difluoro-benzoyl)-3-hydroxy-imidazolidin-4-one] | < 5 | ≤ 1 µM |  |
| C=Cc1cc(F)c(C(=O)N2CC(=O)N(O)C2c2cccc(Br)c2)c(F)c1 (centres unmarked) [Example 115, 2-(3-Bromophenyl)-1-(2,6-difluoro-4-vinyl-benzoyl)-3-hydroxy-imidazolidin-4-one] | < 5 | ≤ 1 µM |  |
| Cc1cc(F)c(C(=O)N2CC(=O)N(O)C2c2cccc(Br)c2)c(F)c1 (centres unmarked) [Example 116, 2-(3-Bromophenyl)-1-(2,6-difluoro-4-methyl-benzoyl)-3-hydroxy-imidazolidin-4-one] | < 5 | ≤ 1 µM |  |
| O=C1CN(C(=O)c2c(F)cc(-c3ccncc3)cc2F)C(c2cccc(Br)c2)N1O (centres unmarked) [Example 118, 2-(3-Bromophenyl)-1-[2,6-difluoro-4-(4-pyridyl)benzoyl]-3-hydroxy-imidazolidin-4-one] | < 5 | ≤ 1 µM |  |
| Cn1cc(-c2cc(F)c(C(=O)N3CC(=O)N(O)C3c3cccc(Br)c3)c(F)c2)cn1 (centres unmarked) [Example 119, 2-(3-Bromophenyl)-1-[2,6-difluoro-4-(1-methylpyrazol-4-yl)benzoyl]-3-hydroxy-imidazolidin-4-one] | < 5 | ≤ 1 µM |  |
| O=C1CN(C(=O)c2c(F)cc(-c3cccs3)cc2F)C(c2cccc(Br)c2)N1O (centres unmarked) [Example 120, 2-(3-Bromophenyl)-1-[2,6-difluoro-4-(2-thienyl)benzoyl]-3-hydroxy-imidazolidin-4-one] | < 5 | ≤ 1 µM |  |
| O=C1CN(Cc2ccccc2F)C(c2cccc(I)c2)N1O (centres unmarked) [Example 124, 1-[(2-Fluorophenyl)methyl]-3-hydroxy-2-(3-iodophenyl)imidazolidin-4-one] | < 5 | ≤ 1 µM |  |
| O=C1CN(Cc2ccccc2F)C(c2cccc(Br)c2)N1O (centres unmarked) [Example 125, 2-(3-Bromophenyl)-1-[(2-fluorophenyl)methyl]-3-hydroxy-imidazolidin-4-one] | < 5 | ≤ 1 µM |  |
| O=C1CN(Cc2c(F)cccc2F)C(c2cccc(Br)c2)N1O (centres unmarked) [Example 127, 2-(3-Bromophenyl)-1-[(2,6-difluorophenyl)methyl]-3-hydroxy-imidazolidin-4-one] | < 5 | ≤ 1 µM |  |
| C=Cc1cccc(C2N(O)C(=O)CN2C(=O)c2c(F)cccc2F)c1 (centres unmarked) [Example 129, 1-(2,6-Difluorobenzoyl)-3-hydroxy-2-(3-vinylphenyl)imidazolidin-4-one] | < 5 | ≤ 1 µM |  |
| COCCNC(=O)c1cc(F)c(C(=O)N2CC(=O)N(O)C2c2cccc(Br)c2)c(F)c1 (centres unmarked) [Example 137, 4-[2-(3-Bromophenyl)-3-hydroxy-4-oxo-imidazolidine-1-carbonyl]-3,5-difluoro-N-(2-methoxyethyl)benzamide] | < 5 | ≤ 1 µM |  |
| COCCNC(=O)c1c(Br)cc(F)c(C(=O)N2CC(=O)N(O)C2c2cccc(Br)c2)c1F (centres unmarked) [Example 138, 6-Bromo-3-[2-(3-bromophenyl)-3-hydroxy-4-oxo-imidazolidine-1-carbonyl]-2,4-difluoro-N-(2-methoxyethyl)benzamide] | < 5 | ≤ 1 µM |  |
| N[C@@H](Cc1c[nH]c2ccccc12)C(=O)O [L-tryptophan] |  |  | Km (TDO): 190 µM; Km (IDO1 [5]): 6 µM |
| Nc1nonc1C(=NO)Nc1ccc(F)c(Cl)c1 [compound 51, 4-amino-N-(3-chloro-4-fluorophenyl)-N′-hydroxy-1,2,5-oxadiazole-3-carboximidamide] |  |  | tumor growth in mouse model for melanoma (melanoma): reduction of tumor growth; inhibition of TDO activity in biochemical assays [6]: inhibit the activity of tryptophan 2,3-dioxygenase (TDO) |
